From patent US20160229839A1, “Factor XIa Inhibitors” (Merck Sharp & Dohme Corp., priority 2013, published 2016) come the findings set out here.

Broadly, the Ki is a dissociation constant, usually derived from enzyme kinetics or from competition with a known ligand.

Where only a bound is given, the exact number is not on record here.

T1 sequence (P03951 388-625 limits assumed): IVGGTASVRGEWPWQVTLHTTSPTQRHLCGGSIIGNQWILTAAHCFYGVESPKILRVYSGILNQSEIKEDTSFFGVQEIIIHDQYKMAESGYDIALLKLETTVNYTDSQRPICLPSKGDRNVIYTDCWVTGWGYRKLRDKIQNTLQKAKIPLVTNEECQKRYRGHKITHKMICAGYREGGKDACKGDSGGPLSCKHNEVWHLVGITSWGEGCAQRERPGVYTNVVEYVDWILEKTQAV
T1 sequence (P03951 19-387 partner limits assumed): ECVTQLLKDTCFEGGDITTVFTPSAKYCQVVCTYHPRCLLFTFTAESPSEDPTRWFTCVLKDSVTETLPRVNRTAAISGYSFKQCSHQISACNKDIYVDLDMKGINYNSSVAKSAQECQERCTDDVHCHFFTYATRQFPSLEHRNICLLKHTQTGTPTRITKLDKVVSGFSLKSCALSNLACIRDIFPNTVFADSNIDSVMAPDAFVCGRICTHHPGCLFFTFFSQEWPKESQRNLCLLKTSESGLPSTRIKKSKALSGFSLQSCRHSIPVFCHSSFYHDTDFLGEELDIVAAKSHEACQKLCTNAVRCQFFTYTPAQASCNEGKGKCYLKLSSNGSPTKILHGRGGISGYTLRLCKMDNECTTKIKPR

The assay has as its target T1, purified human Factor XIa (Homo sapiens, UniProt P03951).
T1 construct: purified human Factor XIa; purchased Sekisui Diagnostics
The experiment in a line: Factor XIa Assay (fluorogenic substrate Z-Gly-Pro-Arg-AFC). Conditions: purified human Factor XIa 40 pM; Z-Gly-Pro-Arg-AFC 100 μM; 50 mM HEPES pH 7.4; read-out: hFXIa Ki (nM), Factor XIa inhibition. It counts as biochemical. How it is done: The effectiveness of compound of the present invention as inhibitors of Coagulation Factor XIa can be determined using a relevant purified serine protease, and an appropriate synthetic substrate. The rate of hydrolysis of the chromogenic or fluorogenic substrate by the relevant serine protease was measured both in the absence and presence of compounds of the present invention. Assays were conducted at room temperature or at 37° C. […] A decrease in the rate of fluorescence change in the presence of inhibitor is indicative of enzyme inhibition. Such methods are known to one skilled in the art. The results of this assay are expressed as the inhibitory constant, Ki.
Factor XIa determinations were made in 50 mM HEPES buffer at pH 7.4 containing 150 mM NaCl, 5 mM CaCl2, and 0.1% PEG 8000 (polyethylene glycol; J T Baker or Fisher Scientific). Determinations were made using purified human Factor XIa at a final concentration of 40 pM (Sekisui Diagnostics) and he synthetic substrate, Z-Gly-Pro-Arg-AFC, TFA salt (Sigma #C0980) at a concentration of 100 μM.
Activity assays were performed by diluting a stock solution of substrate at least tenfold to a final concentration ≦0.1 Km into a solution containing enzyme or enzyme equilibrated with inhibitor. Times required to achieve equilibration between enzyme and inhibitor were determined in control experiments. Initial velocities of product formation in the absence (Vo) or presence of inhibitor (Vi) were measured. Assuming competitive inhibition, and that unity is negligible compared Km/[S], [I]/e, and [I]/e (where [S], [I], and e respectively represent the total concentrations, of substrate, inhibitor and enzyme), the equilibrium constant (Ki) for dissociation of the inhibitor from the enzyme can be obtained from the dependence of Vo/Vi on [I] shown in the following equation.
For `O=C(O)c1ccc(NC(=O)C2C(c3ccccc3)CCCN2C(=O)CCc2cc(Cl)ccc2-n2cnnn2)cc1` (stereo not shown) [Example 1-9, 4-(1-(3-(5-chloro-2-(1H-tetrazol-1-yl)phenyl)propanoyl)-3-phenylpiperidine-2-carboxamido)benzoic acid], the Ki amounted to 57.1 nM. Then `O=C(O)c1ccc(NC(=O)C2C(c3cccc(F)c3)CCCN2C(=O)/C=C/c2cc(Cl)ccc2-n2cnnn2)cc1` (stereo not shown) [Example 1-10, (E)-4-(1-(3-(5-chloro-2-(H-tetrazol-1-yl)phenyl)acryloyl)-3-(3-fluorophenyl)piperidine-2-carboxamido)benzoic acid], with 18.1 nM. Then `O=C(/C=C/c1cc(Cl)ccc1-n1cnnn1)N1CCCC(c2ccccc2)C1c1nc(-c2cccnc2)c[nH]1` [Example 1-11, (E)-3-(5-chloro-2-(1H-tetrazol-1-yl)phenyl)-1-(3-phenyl-2-(4-(pyridin-3-yl)-1H-imidazol-2-yl)piperidin-1-yl)prop-2-en-1-one (2R,3R)], with 8650 nM; and `O=C(/C=C/c1cc(Cl)ccc1-n1cnnn1)N1CCCC(c2ccccc2)C1c1nc(-c2cccnc2)c[nH]1` [Example 1-12, (E)-3-(5-chloro-2-(1H-tetrazol-1-yl)phenyl)-1-(3-phenyl-2-(4-(pyridin-3-yl)-1H-imidazol-2-yl)piperidin-1-yl)prop-2-en-1-one (2S,3S)], with 570 nM; and `O=C(/C=C/c1cc(Cl)ccc1-n1cnnn1)N1CCCC(c2ccccc2)C1c1nc(-c2ccc(F)cc2)c[nH]1` (stereo not shown) [Example 1-13, (E)-3-(5-chloro-2-(1H-tetrazol-1-yl)phenyl)-1-(2-(4-(4-fluorophenyl)-1H-imidazol-2-yl)-3-phenylpiperidin-1-yl)prop-2-en-1-one], with more than 10000 nM.

On to `CC(C)(N)c1ccc(C(=O)N2CCCC(c3ccccc3)C2C(=O)Nc2ccc(C(=O)O)cc2)cc1` (stereo not shown) [Example 1-15, 4-(1-(4-(2-aminopropan-2-yl)benzoyl)-3-phenylpiperidine-2-carboxamido)benzoic acid], for which the Ki was more than 10000 nM. Then `N[C@H]1CCc2cc(C(=O)N3CCCC(c4ccccc4)C3C(=O)Nc3ccc(C(=O)O)cc3)ccc21` (stereo partly drawn) [Example 1-16, 4-(1-((S)-1-amino-2,3-dihydro-1H-indene-5-carbonyl)-3-phenylpiperidine-2-carboxamido)benzoic acid], with 619 nM.

Regarding `O=C(O)c1ccc(NC(=O)C2C(c3cccc(C(F)(F)F)c3)CCCN2C(=O)/C=C/c2cc(Cl)ccc2-n2cnnn2)cc1` (stereo not shown) [Example 1-17, ammonium (E)-4-(1-(3-(5-chloro-2-(1H-tetrazol-1-yl)phenyl)acryloyl)-3-(3-(trifluoromethyl)phenyl)piperidine-2-carboxamido)benzoate], the Ki came to 2850 nM. With `O=C(O)c1ccc(NC(=O)C2C(c3ccc(F)cc3)CCCN2C(=O)/C=C/c2cc(Cl)ccc2-n2cnnn2)cc1` (stereo not shown) [Example 1-18, ammonium (E)-4-(1-(3-(5-chloro-2-(1H-tetrazol-1-yl)phenyl)acryloyl)-3-(4-fluorophenyl)piperidine-2-carboxamido)benzoate], the Ki came out at 25.3 nM. In the case of `O=C(O)C1CCC(NC(=O)C2C(c3ccc(F)cc3F)CCCN2C(=O)/C=C/c2cc(Cl)ccc2-n2cnnn2)CC1` (stereo not shown) [Example 1-19, ammonium (E)-4-(1-(3-(5-chloro-2-(1H-tetrazol-1-yl)phenyl)acryloyl)-3-(2,4-difluorophenyl)piperidine-2-carboxamido)cyclohexanecarboxylate], the Ki was more than 10000 nM. As to `NCc1ccc(C(=O)N2CCCC(c3ccccc3)C2C(=O)Nc2ccc(C(=O)O)cc2)cc1` (stereo not shown) [Example 1-20, (4-(2-((4-carboxyphenyl)carbamoyl)-3-phenylpiperidine-1-carbonyl)phenyl)methanaminium 2,2,2-trifluoroacetate], the Ki was determined as 627 nM. In the case of `O=C(/C=C/c1cc(Cl)ccc1-n1cnnn1)N1CCCC(c2ccccc2)C1c1nc(-c2ccc(Cl)cc2)c[nH]1` (stereo not shown) [Example 1-21, (E)-3-(5-chloro-2-(1H-tetrazol-1-yl)phenyl)-1-(2-(4-(4-chlorophenyl)-1H-imidazol-2-yl)-3-phenylpiperidin-1-yl)prop-2-en-1-one] it was more than 10000 nM; in that of `N#Cc1ccc(-c2c[nH]c(C3C(c4ccccc4)CCCN3C(=O)/C=C/c3cc(Cl)ccc3-n3cnnn3)n2)cc1` (stereo not shown) [Example 1-22, (E)-4-(2-(1-(3-(5-chloro-2-(1H-tetrazol-1-yl)phenyl)acryloyl)-3-phenylpiperidin-2-yl)-1H-imidazol-4-yl)benzonitrile], 3260 nM; in that of `O=C(CCc1cc(Cl)ccc1-n1cnnn1)N1CCCC(c2ccccc2)C1c1nc(-c2ccc(Cl)cc2)c[nH]1` (stereo not shown) [Example 1-23, 3-(5-chloro-2-(1H-tetrazol-1-yl)phenyl)-1-(2-(4-(4-chlorophenyl)-1H-imidazol-2-yl)-3-phenylpiperidin-1-yl)propan-1-one], more than 10000 nM. Then `N#Cc1ccc(-c2c[nH]c(C3C(c4ccccc4)CCCN3C(=O)CCc3cc(Cl)ccc3-n3cnnn3)n2)cc1` (stereo not shown) [Example 1-24, 4-(2-(1-(3-(5-chloro-2-(1H-tetrazol-1-yl)phenyl)propanoyl)-3-phenylpiperidin-2-yl)-1H-imidazol-4-yl)benzonitrile], with 8510 nM. Then `N#Cc1cccc(-c2c[nH]c(C3C(c4ccccc4)CCCN3C(=O)/C=C/c3cc(Cl)ccc3-n3cnnn3)n2)c1` (stereo not shown) [Example 1-27, (E)-3-(2-(1-(3-(5-chloro-2-(1H-tetrazol-1-yl)phenyl)acryloyl)-3-phenylpiperidin-2-yl)-1H-imidazol-4-yl)benzonitrile], with more than 10000 nM; and `COc1cccc(-c2c[nH]c(C3C(c4ccccc4)CCCN3C(=O)/C=C/c3cc(Cl)ccc3-n3cnnn3)n2)c1` (stereo not shown) [Example 1-28, (E)-3-(5-chloro-2-(1H-tetrazol-1-yl)phenyl)-1-(2-(4-(3-methoxyphenyl)-1H-imidazol-2-yl)-3-phenylpiperidin-1-yl)prop-2-en-1-one], with more than 10000 nM; and `CS(=O)(=O)c1ccc(-c2c[nH]c(C3C(c4ccccc4)CCCN3C(=O)/C=C/c3cc(Cl)ccc3-n3cnnn3)n2)cc1` (stereo not shown) [Example 1-29, (E)-3-(5-chloro-2-(1H-tetrazol-1-yl)phenyl)-1-(2-(4-(4-(methylsulfonyl)phenyl)-1H-imidazol-2-yl)-3-phenylpiperidin-1-yl)prop-2-en-1-one], with more than 10000 nM. As for `O=C(/C=C/c1cc(Cl)ccc1-n1cnnn1)N1CCCC(c2ccccc2)C1c1nc(-c2ccc(C(F)(F)F)cc2)c[nH]1` (stereo not shown) [Example 1-30, (E)-3-(5-chloro-2-(1H-tetrazol-1-yl)phenyl)-1-(3-phenyl-2-(4-(4-(trifluoromethyl)phenyl)-1H-imidazol-2-yl)piperidin-1-yl)prop-2-en-1-one], the Ki was more than 10000 nM. On to `O=C(/C=C/c1cc(Cl)ccc1-n1cnnn1)N1CCCC(c2ccccc2)C1c1nc(-c2cccc(C(F)(F)F)c2)c[nH]1` (stereo not shown) [Example 1-31, (E)-3-(5-chloro-2-(1H-tetrazol-1-yl)phenyl)-1-(3-phenyl-2-(4-(3-(tifluoromethyl)phenyl)-1H-imidazol-2-yl)piperidin-1-yl)prop-2-en-1-one], for which the inhibition constant (Ki) is more than 10000 nM. For the compound `O=C(O)c1ccc(NC(=O)C2C(c3ccc(C(F)(F)F)cc3)CCCN2C(=O)/C=C/c2cc(Cl)ccc2-n2cnnn2)cc1` (stereo not shown) [Example 1-32, (E)-4-(1-(3-(5-chloro-2-(1H-tetrazol-1-yl)phenyl)acryloyl)-3-(4-(trifluoromethyl)phenyl)piperidine-2-carboxamido)benzoic acid], the Ki came out at 218 nM. As for `Nc1ccc(C2CCCN(C(=O)/C=C/c3cc(Cl)ccc3-n3cnnn3)C2C(=O)Nc2ccc(C(=O)O)cc2)cc1` (stereo not shown) [Example 1-33, (E)-4-(3-(4-aminophenyl)-1-(3-(5-chloro-2-(1H-tetrazol-1-yl)phenyl)acryloyl)piperidine-2-carboxamido)benzoic], the Ki stood at 46.7 nM. In the case of `O=C(/C=C/c1cc(Cl)ccc1-n1cnnn1)Nc1ccc(C2CCCN(C(=O)/C=C/c3cc(Cl)ccc3-n3cnnn3)C2C(=O)Nc2ccc(C(=O)O)cc2)cc1` (stereo not shown) [Example 1-34, 4-(3-(4-((E)-3-(5-chloro-2-(1H-tetrazol-1-yl)phenyl)acrylamido)phenyl)-1-((E)-3-(5-chloro-2-(1H-tetrazol-1-yl)phenyl)acryloyl)piperidine-2-carboxamido)benzoic acid] it was 24.9 nM; in that of `O=C(O)c1ccc(NC(=O)C2C(c3ccc(OC(F)(F)F)cc3)CCCN2C(=O)/C=C/c2cc(Cl)ccc2-n2cnnn2)cc1` (stereo not shown) [Example 1-35, (E)-4-(1-(3-(5-chloro-2-(1H-tetrazol-1-yl)phenyl)acryloyl)-3-(4-(tifluoromethoxy)phenyl)piperidine-2-carboxamido)benzoic acid], 122 nM. In the case of `NC(=O)c1ccc(C2CCCN(C(=O)/C=C/c3cc(Cl)ccc3-n3cnnn3)C2C(=O)Nc2ccc(C(=O)O)cc2)cc1` (stereo not shown) [Example 1-36, (E)-4-(3-(4-carbamoylphenyl)-1-(3-(5-chloro-2-(1H-tetrazol-1-yl)phenyl)acryloyl)piperidine-2-carboxamido)benzoic acid] it was 36.2 nM.
